# Laboratory results reported in US20150087627A1, “COMBINATION OF KINASE INHIBITORS AND USES THEREOF” (Intellikine LLC, priority 2011, published 2015).
# Read-outs that look alike come from different tables or passages of the source.
# Columns and labels:
# Assay type in all cases: biochemical
# [1] = molecular target: T1, PI3K α (p110α/p85α) (Homo sapiens, UniProt P42336); test: PI 3-Kinase (human) HTRF assay, PI3K α; details: read-out: PI3K α IC50
# T1 construct: purchased Upstate / Millipore Corporation
# T1 sequence (P42336 whole entry): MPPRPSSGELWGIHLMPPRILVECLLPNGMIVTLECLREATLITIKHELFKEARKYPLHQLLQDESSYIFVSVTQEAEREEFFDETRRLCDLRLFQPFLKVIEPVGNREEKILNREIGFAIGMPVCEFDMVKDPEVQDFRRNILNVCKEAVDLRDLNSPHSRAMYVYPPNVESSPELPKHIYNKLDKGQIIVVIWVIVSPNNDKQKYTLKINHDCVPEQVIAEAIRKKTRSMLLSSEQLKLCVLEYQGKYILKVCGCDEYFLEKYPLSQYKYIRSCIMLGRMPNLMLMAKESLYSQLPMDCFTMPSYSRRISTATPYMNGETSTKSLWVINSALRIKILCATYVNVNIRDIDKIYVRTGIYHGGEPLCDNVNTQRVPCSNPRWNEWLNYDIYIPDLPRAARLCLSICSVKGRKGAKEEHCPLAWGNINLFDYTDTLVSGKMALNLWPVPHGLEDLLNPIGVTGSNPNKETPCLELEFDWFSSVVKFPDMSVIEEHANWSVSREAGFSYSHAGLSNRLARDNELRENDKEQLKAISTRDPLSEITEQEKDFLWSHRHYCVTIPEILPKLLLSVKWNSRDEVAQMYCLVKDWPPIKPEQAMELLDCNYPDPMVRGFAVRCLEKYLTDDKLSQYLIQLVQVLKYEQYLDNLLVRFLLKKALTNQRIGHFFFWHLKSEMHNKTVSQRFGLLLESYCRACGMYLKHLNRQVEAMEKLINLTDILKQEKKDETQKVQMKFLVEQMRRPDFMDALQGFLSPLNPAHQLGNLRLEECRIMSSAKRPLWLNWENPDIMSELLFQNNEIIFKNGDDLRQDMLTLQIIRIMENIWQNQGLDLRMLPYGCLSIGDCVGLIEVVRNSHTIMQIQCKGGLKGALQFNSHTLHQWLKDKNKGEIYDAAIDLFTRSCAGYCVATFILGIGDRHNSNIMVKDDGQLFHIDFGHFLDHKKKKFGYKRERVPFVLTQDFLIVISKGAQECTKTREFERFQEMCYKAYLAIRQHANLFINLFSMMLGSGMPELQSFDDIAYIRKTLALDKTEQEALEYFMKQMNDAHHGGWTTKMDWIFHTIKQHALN
# T1 sequence (P27986 whole entry partner): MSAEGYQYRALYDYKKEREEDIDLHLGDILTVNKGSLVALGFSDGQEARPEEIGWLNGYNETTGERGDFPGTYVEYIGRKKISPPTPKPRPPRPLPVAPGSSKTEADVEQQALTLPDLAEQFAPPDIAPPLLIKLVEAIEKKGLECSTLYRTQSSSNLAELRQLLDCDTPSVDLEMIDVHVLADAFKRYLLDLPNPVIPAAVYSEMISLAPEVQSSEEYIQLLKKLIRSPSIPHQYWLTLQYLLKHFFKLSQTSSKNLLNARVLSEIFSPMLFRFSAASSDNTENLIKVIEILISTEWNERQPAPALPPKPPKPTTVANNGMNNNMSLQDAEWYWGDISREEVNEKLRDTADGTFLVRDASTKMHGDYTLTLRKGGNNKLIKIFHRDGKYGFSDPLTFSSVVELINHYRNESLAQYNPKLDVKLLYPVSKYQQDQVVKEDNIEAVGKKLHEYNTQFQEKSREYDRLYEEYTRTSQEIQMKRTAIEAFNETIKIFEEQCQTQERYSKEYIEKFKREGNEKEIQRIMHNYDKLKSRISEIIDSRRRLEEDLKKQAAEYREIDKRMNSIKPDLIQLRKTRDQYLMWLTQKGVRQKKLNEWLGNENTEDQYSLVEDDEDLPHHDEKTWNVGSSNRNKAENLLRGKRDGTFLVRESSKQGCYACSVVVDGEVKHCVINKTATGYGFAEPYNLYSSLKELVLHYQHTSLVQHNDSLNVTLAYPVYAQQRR
# [2] = molecular target: T2, PI3K β (p110β/p85α) (Homo sapiens, UniProt P42338); test: PI 3-Kinase (human) HTRF assay, PI3K β; details: read-out: PI3K β IC50
# T2 construct: purchased Upstate / Millipore Corporation
# T2 sequence (P42338 whole entry): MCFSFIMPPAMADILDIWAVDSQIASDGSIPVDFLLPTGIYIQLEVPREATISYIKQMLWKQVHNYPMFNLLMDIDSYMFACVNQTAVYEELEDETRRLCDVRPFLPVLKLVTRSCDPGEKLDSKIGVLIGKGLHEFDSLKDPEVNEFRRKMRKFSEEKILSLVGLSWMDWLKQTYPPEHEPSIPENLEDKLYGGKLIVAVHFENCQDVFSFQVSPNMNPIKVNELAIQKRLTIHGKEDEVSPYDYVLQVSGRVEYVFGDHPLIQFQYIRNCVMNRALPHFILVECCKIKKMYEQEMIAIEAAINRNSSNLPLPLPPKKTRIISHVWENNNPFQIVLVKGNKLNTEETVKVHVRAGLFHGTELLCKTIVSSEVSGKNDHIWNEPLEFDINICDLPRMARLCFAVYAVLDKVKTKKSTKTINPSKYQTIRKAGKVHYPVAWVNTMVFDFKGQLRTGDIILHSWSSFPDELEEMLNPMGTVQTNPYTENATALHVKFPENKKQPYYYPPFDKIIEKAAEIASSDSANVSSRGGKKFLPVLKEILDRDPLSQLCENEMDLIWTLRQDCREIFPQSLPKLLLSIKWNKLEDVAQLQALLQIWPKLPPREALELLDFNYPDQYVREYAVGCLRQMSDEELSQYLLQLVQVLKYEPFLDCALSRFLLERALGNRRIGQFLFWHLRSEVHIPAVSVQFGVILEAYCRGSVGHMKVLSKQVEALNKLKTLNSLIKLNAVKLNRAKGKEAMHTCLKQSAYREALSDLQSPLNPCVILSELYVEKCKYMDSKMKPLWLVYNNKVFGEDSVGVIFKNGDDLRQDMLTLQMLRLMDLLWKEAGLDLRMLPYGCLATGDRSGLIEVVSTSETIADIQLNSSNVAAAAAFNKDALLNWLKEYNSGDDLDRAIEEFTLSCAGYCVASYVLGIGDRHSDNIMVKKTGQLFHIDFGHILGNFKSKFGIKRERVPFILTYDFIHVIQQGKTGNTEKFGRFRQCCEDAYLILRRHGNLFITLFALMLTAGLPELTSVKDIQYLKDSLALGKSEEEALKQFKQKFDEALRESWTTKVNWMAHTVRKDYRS
# T2 sequence (P27986 whole entry partner): as the sequence (P27986 whole entry partner) above
# Protocol: Briefly, the assay is a time resolved FRET assay that indirectly measures PIP3 product formed by the activity of a PI3-K. The kinase reaction is performed in a microtiter plate (e.g., a 384 well microtiter plate). The total reaction volume is approximately 20 ul per well. In the first step, each well receives 2 ul of test compound in 20% dimethylsulphoxide resulting in a 2% DMSO final concentration. […] The plate is sealed and incubated for 15 minutes at room temperature. […] The plate is sealed and incubated for 1 hour at room temperature. The reaction is stopped by adding 5 ul of Stop Solution per well and then 5 ul of Detection Mix is added per well. The plate is sealed, incubated for 1 hour at room temperature, and then read on an appropriate plate reader. Data is analyzed and IC50s are generated using GraphPad Prism 5.
# [3] = molecular target: T3, PI3K γ (p110γ) (Homo sapiens, UniProt P48736); test: PI 3-Kinase (human) HTRF assay, PI3K γ
# T3 construct: purchased Upstate / Millipore Corporation
# T3 sequence (P48736 whole entry): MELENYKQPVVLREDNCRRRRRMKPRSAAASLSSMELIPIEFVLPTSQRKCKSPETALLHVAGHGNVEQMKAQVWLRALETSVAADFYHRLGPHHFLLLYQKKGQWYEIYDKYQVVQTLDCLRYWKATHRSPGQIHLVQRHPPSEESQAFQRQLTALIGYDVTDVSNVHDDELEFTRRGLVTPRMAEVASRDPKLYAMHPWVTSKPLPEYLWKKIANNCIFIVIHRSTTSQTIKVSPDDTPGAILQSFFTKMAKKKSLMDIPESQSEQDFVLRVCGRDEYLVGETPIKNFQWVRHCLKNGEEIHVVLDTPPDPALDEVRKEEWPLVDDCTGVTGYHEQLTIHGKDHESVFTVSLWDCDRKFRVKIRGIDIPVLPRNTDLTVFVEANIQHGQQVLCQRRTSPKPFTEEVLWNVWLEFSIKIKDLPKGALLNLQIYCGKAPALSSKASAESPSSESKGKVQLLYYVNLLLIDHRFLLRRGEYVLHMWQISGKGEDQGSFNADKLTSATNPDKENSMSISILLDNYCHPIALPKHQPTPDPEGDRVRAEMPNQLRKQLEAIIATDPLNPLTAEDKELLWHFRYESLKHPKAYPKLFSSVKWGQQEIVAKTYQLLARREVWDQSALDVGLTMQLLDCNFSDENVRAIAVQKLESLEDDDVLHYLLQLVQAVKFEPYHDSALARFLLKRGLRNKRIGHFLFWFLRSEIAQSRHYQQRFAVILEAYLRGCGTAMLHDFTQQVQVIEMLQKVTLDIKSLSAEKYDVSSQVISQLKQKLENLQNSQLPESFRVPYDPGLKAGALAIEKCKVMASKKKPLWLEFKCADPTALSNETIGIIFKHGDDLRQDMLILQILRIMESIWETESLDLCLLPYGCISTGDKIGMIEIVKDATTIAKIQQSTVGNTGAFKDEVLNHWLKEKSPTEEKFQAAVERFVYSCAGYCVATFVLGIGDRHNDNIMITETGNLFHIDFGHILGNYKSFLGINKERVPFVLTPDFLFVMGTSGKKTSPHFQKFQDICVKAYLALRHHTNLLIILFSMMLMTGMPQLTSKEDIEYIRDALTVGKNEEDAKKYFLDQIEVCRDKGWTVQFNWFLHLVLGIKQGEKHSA
# [4] = molecular target: T4, PI3K δ (Homo sapiens, UniProt O00329); test: PI 3-Kinase (human) HTRF assay, PI3K δ
# T4 construct: purchased Upstate / Millipore Corporation
# T4 sequence (O00329 whole entry): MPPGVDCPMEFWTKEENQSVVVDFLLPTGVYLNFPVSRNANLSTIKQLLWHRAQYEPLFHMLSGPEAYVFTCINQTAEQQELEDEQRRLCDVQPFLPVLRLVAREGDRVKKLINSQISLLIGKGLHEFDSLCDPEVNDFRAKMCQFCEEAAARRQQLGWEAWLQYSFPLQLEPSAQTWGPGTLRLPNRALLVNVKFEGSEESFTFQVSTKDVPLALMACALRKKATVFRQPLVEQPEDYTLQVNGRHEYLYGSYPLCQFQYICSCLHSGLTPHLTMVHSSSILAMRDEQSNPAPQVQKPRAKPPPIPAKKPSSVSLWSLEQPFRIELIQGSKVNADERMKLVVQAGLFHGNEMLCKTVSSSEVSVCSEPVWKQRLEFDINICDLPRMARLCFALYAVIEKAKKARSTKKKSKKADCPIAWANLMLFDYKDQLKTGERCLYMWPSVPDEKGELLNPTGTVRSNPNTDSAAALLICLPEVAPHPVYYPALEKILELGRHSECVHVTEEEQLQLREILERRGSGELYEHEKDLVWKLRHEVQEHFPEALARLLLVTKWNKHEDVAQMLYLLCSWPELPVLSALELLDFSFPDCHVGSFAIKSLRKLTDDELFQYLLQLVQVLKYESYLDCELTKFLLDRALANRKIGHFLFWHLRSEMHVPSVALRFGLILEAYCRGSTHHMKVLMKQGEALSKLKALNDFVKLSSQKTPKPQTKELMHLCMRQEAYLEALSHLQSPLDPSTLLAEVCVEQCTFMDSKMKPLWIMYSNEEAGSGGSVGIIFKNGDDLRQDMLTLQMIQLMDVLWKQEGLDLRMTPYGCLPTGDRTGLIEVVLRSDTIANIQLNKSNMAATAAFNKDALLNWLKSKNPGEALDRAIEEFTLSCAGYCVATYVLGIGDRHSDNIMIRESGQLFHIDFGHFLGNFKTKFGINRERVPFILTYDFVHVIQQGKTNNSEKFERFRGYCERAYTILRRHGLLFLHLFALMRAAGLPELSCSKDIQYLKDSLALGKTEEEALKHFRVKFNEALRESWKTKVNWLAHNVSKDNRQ
# T4 sequence (P27986 whole entry partner): as the sequence (P27986 whole entry partner) above
SMILES,IC50 [1],IC50 [2],IC50 ([3]; read-out: PI3K γ IC50),IC50 ([4]; read-out: PI3K δ IC50),IC50 ([3]; PI3K γ IC50 (nM)),IC50 [4]
Nc1nc2cc(-c3ccc4ncc(N5CCN(CC6CC6)CC5)nc4c3)ccc2o1 [Compound 153],< 100 nM,< 100 nM,< 1000 nM,< 1000 nM,–,–
CNC(=O)N1CCN(c2cnc3ccc(-c4ccc5oc(N)nc5c4)cc3n2)CC1 [Compound 154],< 100 nM,< 1000 nM,< 100 nM,< 10000 nM,–,–
CN1CCC(N(C)c2ncnc3ccc(-c4ccc5oc(N)nc5c4)cc23)CC1 [Compound 155],< 100 nM,< 100 nM,–,–,< 100 nM,< 1000 nM
CN1CCN(C(=O)c2cnc3ccc(-c4ccc5oc(N)nc5c4)cc3n2)CC1 [Compound 157],< 10000 nM,> 10000 nM,> 10000 nM,> 10000 nM,–,–
Nc1nc2cc(-c3ccc4ncc(C(=O)N5CCOCC5)nc4c3)ccc2o1 [Compound 158],< 10000 nM,> 10000 nM,> 10000 nM,> 10000 nM,–,–
CN1CCC(NC(=O)c2cnc3ccc(-c4ccc5oc(N)nc5c4)cn23)CC1 [Compound 159],< 100 nM,< 1000 nM,< 1000 nM,< 100 nM,–,–
CC(C)N1CCN(C(=O)c2cnc3ccc(-c4ccc5oc(N)nc5c4)cn23)CC1 [Compound 160],< 100 nM,< 10000 nM,> 10000 nM,> 10000 nM,–,–
Nc1nc2cc(-c3ccc4ncc(C(=O)N5CCC(O)CC5)n4c3)ccc2o1 [Compound 162],< 1000 nM,> 10000 nM,< 10000 nM,> 10000 nM,–,–
Nc1nc2cc(-c3ccc4ncc(C(=O)N5CCC(N6CCOCC6)CC5)n4c3)ccc2o1 [Compound 163],< 1000 nM,< 10000 nM,< 10000 nM,< 10000 nM,–,–
CC1CN(C(=O)c2cnc3ccc(-c4ccc5oc(N)nc5c4)cn23)CCN1 (stereo not shown) [Compound 164],< 1000 nM,< 1000 nM,> 10000 nM,> 10000 nM,–,–
CN1CCC(N(C)C(=O)c2cnc3ccc(-c4ccc5oc(N)nc5c4)cn23)CC1 [Compound 165],< 1000 nM,< 10000 nM,> 10000 nM,< 10000 nM,–,–
CN(CCN1CCOCC1)c1cnc2ccc(-c3ccc4oc(N)nc4c3)cc2n1 [Compound 166],< 1000 nM,< 10000 nM,< 10000 nM,> 10000 nM,–,–
Nc1nc2cc(-c3ccc4ncc(-c5ccc(N6CCOCC6)nc5)nc4c3)ccc2o1 [Compound 167],< 10000 nM,> 10000 nM,> 10000 nM,> 10000 nM,–,–
Nc1nc2cc(-c3ccc4ncc(N5CCC(N)CC5)nc4c3)ccc2o1 [Compound 168],< 100 nM,< 1000 nM,> 10000 nM,< 10000 nM,–,–
CN(C)C1CCN(c2cnc3ccc(-c4ccc5oc(N)nc5c4)cc3n2)CC1 [Compound 172],< 100 nM,< 100 nM,< 1000 nM,< 100 nM,–,–
Cc1nccn1-c1cnc2ccc(-c3ccc4oc(N)nc4c3)cc2n1 [Compound 174],< 100 nM,< 1000 nM,< 100 nM,< 10000 nM,–,–
Nc1nc2cc(-c3ccc4ncc(N5CCCC5)nc4c3)ccc2o1 [Compound 176],< 100 nM,< 1000 nM,< 100 nM,< 1000 nM,–,–
Nc1nc2cc(-c3ccc4ncc(-c5ccccc5)nc4c3)ccc2o1 [Compound 180],< 1000 nM,> 10000 nM,> 10000 nM,> 10000 nM,–,–
CS(=O)(=O)CCN1CCC(Nc2cnc3ccc(-c4ccc5oc(N)nc5c4)cc3n2)CC1 [Compound 181],< 100 nM,< 10000 nM,< 100 nM,< 1000 nM,–,–
CC(C)(C)N1CCN(c2cnc3ccc(-c4ccc5oc(N)nc5c4)cc3n2)CC1 [Compound 182],< 100 nM,< 1000 nM,< 1000 nM,< 1000 nM,–,–
CCn1cnc2ccc(-c3ccc4oc(N)nc4c3)cc2c1=O [Compound 183],< 100 nM,< 10000 nM,< 100 nM,< 10000 nM,–,–
Nc1nc2cc(-c3ccc4ncn(CCO)c(=O)c4c3)ccc2o1 [Compound 184],< 100 nM,< 10000 nM,< 1000 nM,> 10000 nM,–,–
Cc1ncccc1-c1cnc2ccc(-c3ccc4oc(N)nc4c3)cc2n1 [Compound 185],< 1000 nM,> 10000 nM,> 10000 nM,> 10000 nM,–,–
Nc1nc2cc(-c3ccc4ncc(C(=O)N5CCCC5)n4c3)ccc2o1 [Compound 186],< 100 nM,< 10000 nM,< 100 nM,< 1000 nM,–,–
Nc1nc2cc(-c3ccc4ncc(C(=O)NC5CC5)n4c3)ccc2o1 [Compound 187],< 100 nM,< 10000 nM,< 100 nM,< 1000 nM,–,–
